Reference: patent EP0287988A2, “Pyrrole aldehydes, their preparation and use” (CASSELLA Aktiengesellschaft, priority 1987, dated 1988)

Tested on: scopolamininduzierten Amnesie
Test: Passive avoidance test, scopolamine-induced amnesia (light-dark box, foot shock, latency after 24 h)
Type: in vivo, Mäuse
Details: male mice, scopolamine hydrobromide 3 mg/kg i.p.
Experimental: Die Testapparatur ist eine Hell-Dunkel-Box mit elektrifizierbarem Gitterboden im dunklen Teil.
55 Minuten nach Verabreichung von Kontroll-und Präparatinjektion werden unerfahrene männliche Mäuse mit Scopolaminhydrobromid (3 mg/kg i.p.) behendelt. 5 Minuten später werden die Mäuse in den hellen Teil der Box gesetzt. Nach dem Überwechseln in den drunklen Teil der Box erhalten sie einen ihnen unangenehmen elektrischen Fußschock. Nach 24 Stunden wird jede Maus einmal in den hellen Teil der Testapparatur gesetzt und die Verweildauer (max. 180 sec.) gemessen. […] […] Die Ergebnisse sind in Tabelle 2 angegeben.

Compound | Prozentuale Abschwächung der scopolamininduzierten Amnesie (Dosis 30 mg/kg p.o., latency measured after 24 h (max. 180 sec)) [%] | prozentuale Abschwächung (Dosis 60 mg/kg p.o.) [%]
1-(Aminocarbony(methyl)-2,5-dimethylpyrrol-3-aldehyd [Beispiel 13] | 146 | 
NC(=O)CN1CCCC1=O [Piracetam] |  | 100
